# Laboratory results: patent US6284468A, “Composition and methods for determining the activity of DNA-binding proteins and of initiation of trascription” (Dnab Diagnostics, Inc., priority 2000, dated 2001)
# pKi: −log10 of the molar value.
# Experiments:
# [1] = molecular target: T1, Escherichia coli RNA polymerase (Escherichia coli, UniProt P0A8V2); experiment: Inhibition of initiation of transcription (de-protection of BseRI site of plasmid pDNAB-tac, ethidium bromide fluorescence); format: biochemical
# T1 construct: purchased Pharmacia, Uppsala, Sweden
# Description: In order to measure the initiation of transcription RNA polymerase was added to 0.5 μg of pDNAB-tac plasmid following the same procedure described above for the measurement of DNA-binding activity. The 4 ribonucleotide triphosphates (ATP, CTP, GTP and UTP) were then added to the reaction mixture followed by BseRI and the amount of CCC DNA left was measured after 20 minutes using ethidium bromide fluorescence as in Example 1. In the presence of the 4 ribonucleotide triphosphates the RNA polymerase starts polymerizing an RNA molecule and it moves away from the promoter sequence, thereby de-protecting the BseRI cleavage site. Cleavage at this site can take place then.
# In order to measure the inhibition of the initiation of transcription, the effect of various concentrations of rifampicin on the de-protection of the BseRI site was measured. […] After 5 minutes of incubation, rifampicin and BseRI were added and the amount of uncleaved plasmid was measured after 20 minutes of incubation at 37° C. The 4 ribonucleotide triphosphates were then added and the amount of uncleaved plasmid was measured again after 20 more minutes of incubation at 37° C. […]
# The relative effects of rifampicin on transcription was quantitated using the formula [formula] […]
# [2] = molecular target: T1, Escherichia coli RNA polymerase; experiment: Binding of RNA polymerase to the promoter sequence (protection of pDNAB-tac from BseRI cleavage, before addition of ribonucleotide triphosphates); settings: various concentrations of rifampicin, FIG. 14
# Description: The following experiment was conducted to measure the DNA-binding activity of RNA polymerase to its cognate nucleotide recognition sequence. The incubation buffer contained 50 mM tris HCI (pH 8), 5 mM MgCl2, 100 mM potassium glutamate, and 3, μg of pDNABtac DNA in 60 μL final volume. One to 9 units of RNA polymerase (Boehringer-Mannheim, Mannheim, Germany) were added and, after preincubation at 37° C. for 5 minutes, the reaction was cooled to 31° C.
# In order to measure the inhibition of the initiation of transcription, the effect of various concentrations of rifampicin on the de-protection of the BseRI site was measured. Rifampicin is an antibiotic used in the therapy of bacterial infections (e.g. tuberculosis) and it specifically targets bacterial RNA polymerase, by inhibiting its transcription activity. […] After 5 minutes of incubation, rifampicin and BseRI were added and the amount of uncleaved plasmid was measured after 20 minutes of incubation at 37° C. The 4 ribonucleotide triphosphates were then added and the amount of uncleaved plasmid was measured again after 20 more minutes of incubation at 37° C.
# The white bars represent the fluorescence units (i.e. the amount of uncleaved plasmid) before the addition of the 4 ribonucleoside triphosphates, while the hatched bars represent the fluorescence units left after addition of the 4 ribonucleotide triphosphates.
smiles,measurement,setting,value
CO[C@H]1/C=C/O[C@@]2(C)Oc3c(C)c(O)c4c(O)c(c(/C=N/N5CCN(C)CC5)c(O)c4c3C2=O)NC(=O)/C(C)=C\C=C\[C@H](C)[C@H](O)[C@@H](C)[C@@H](O)[C@@H](C)[C@H](OC(C)=O)[C@@H]1C [rifampicin],pKi,"[1]; Michaelis-Menten fit of % inhibition, rifampicin 0.2 μM to 3.2 μM, plasmid pDNAB-tac, 37° C., read-out: apparent Ki of rifampicin (inhibition of initiation of transcription activity)",5.55
same,inhibition of the transcription initiation activity,"[1]; various concentrations of rifampicin, with the 4 ribonucleotide triphosphates, FIG. 14",dose-dependent inhibition
same,inhibition of the binding of RNA polymerase to the promoter sequence,[2],not of the binding of RNA polymerase to the promoter sequence
